Earlier results in patent US7354953B2, “Time-release compositions for delivery of [Cr3O(carboxylate)6(H2O)3]+” (University of Alabama, priority 2006, dated 2008).

Legend:
[1] = system: healthy and model type 2 diabetic rats
[2] = in vivo
insulin receptor = insulin receptor (Homo sapiens, UniProt P06213)
rats = settings: for effect on body mass, percentage lean or fat content, tissue size, blood variables: rats on regular diets
[3] = system: adult-onset diabetic patients
[4] = healthy and model type 2 diabetic rats

Sequence of insulin receptor (P06213 763-1382 limits assumed, species assumed): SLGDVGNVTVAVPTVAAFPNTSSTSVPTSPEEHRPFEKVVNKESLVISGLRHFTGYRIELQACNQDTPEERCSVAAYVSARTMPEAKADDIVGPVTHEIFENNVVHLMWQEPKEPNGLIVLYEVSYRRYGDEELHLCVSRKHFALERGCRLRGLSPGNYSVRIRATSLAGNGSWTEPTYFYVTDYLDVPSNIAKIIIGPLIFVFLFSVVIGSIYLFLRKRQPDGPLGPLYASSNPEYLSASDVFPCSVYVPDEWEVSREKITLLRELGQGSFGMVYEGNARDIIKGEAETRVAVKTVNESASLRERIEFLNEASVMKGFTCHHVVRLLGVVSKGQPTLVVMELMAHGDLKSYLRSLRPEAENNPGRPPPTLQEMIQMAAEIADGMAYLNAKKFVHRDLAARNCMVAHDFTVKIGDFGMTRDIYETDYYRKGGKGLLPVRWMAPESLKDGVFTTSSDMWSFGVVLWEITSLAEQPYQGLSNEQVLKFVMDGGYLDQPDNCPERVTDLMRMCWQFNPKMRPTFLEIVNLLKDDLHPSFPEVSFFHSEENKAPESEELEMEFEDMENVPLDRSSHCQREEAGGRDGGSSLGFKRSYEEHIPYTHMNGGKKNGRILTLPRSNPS
Sequence of insulin receptor (P06213 28-758 partner limits assumed, species assumed): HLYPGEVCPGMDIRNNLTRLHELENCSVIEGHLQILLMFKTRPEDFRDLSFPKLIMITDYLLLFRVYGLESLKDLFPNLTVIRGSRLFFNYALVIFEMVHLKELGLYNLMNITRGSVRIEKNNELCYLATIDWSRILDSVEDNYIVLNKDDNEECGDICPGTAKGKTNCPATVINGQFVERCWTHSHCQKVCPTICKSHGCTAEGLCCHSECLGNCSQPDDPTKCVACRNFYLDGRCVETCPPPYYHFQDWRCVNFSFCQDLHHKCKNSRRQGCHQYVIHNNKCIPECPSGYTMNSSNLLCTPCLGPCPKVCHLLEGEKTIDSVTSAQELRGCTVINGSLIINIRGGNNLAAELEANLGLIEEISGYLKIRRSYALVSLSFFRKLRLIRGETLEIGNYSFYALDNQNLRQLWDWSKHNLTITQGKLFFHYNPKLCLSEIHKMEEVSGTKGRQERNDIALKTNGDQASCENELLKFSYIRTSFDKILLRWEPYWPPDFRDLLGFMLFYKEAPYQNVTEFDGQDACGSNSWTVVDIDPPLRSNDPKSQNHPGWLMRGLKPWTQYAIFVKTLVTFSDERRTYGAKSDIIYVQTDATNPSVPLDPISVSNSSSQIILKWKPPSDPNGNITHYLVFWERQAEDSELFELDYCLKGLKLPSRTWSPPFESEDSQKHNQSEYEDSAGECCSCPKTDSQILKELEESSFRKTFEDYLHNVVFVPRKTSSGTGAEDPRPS

| Compound | glycated hemoglobin ([1]; diabetes models) | blood plasma cholesterol and triglycerides levels [1, 4] | insulin sensitivity [1, 4] | absorption (rate and efficiency, in words) [2] | absorption efficiency [2] | DNA cleavage (DNA) | ability to stimulate insulin receptor kinase activity (insulin receptor) | onset of colorectal cancer (colorectal cancer in rat) | effect on body mass, percentage lean or fat content, tissue size, blood variables (rats) | insulin requirements ([3]; 138 adult-onset diabetic patients) | glycemic control ([3]; 180 adult-onset diabetic patients) | acute toxic effects (rats; rats, up to 1500 μg/kg diet for up to 24 weeks) | chromosome damage (chromosome) |
| --- | --- | --- | --- | --- | --- | --- | --- | --- | --- | --- | --- | --- | --- |
| CCC(=O)[O-].CCC(=O)[O-].CCC(=O)[O-].CCC(=O)[O-].CCC(=O)[O-].CCC(=O)[O-].O.O.O.[Cr+3].[Cr+3].[Cr+3].[O-2] [Complex 1, [[Cr3O(O2CCH2CH3)6(H2O)3]^+] | reduce glycated hemoglobin | improve | increase insulin sensitivity | absorbed very rapidly and very efficiently | 40-60% | not to lead to DNA cleavage | mimic the ability of LMWCr to stimulate insulin receptor kinase activity | reduce the onset of colorectal cancer |  |  |  |  |  |
| [Cl][Cr]([Cl])[Cl] [chromium chloride] |  |  |  |  |  |  |  |  | no effect |  |  |  |  |
| chromium(III) tris(picolinate) [Cr(pic)3] |  |  |  |  | 0.5-2% |  |  |  | no effect | reduced insulin requirements | improved glycemic control | no acute toxic effects | cause chromosome damage |
